The numbers were not newly measured in patent US20170007618A1, “SEROTONIN 2C RECEPTOR ANTAGONISTS TO PREVENT AND TREAT STRESS-RELATED TRAUMA DISORDERS” (Massachusetts Institute of Technology, priority 2015, published 2017), which cites them from elsewhere.

Where a name gives a salt, the structure may show the parent alone.

For orientation: pKi means the Ki on a negative log10 scale, so that one unit is a factor of ten.

One data set has as its target 5-HT2A receptors (Homo sapiens, UniProt P28223). The conditions noted are these: 5-HT2C versus 5-HT2A.
For the next data set, the target named is 5-HT2B receptors (Homo sapiens, UniProt P41595). The conditions noted are these: 5-HT2C versus 5-HT2B.
In data set [1] the target is T1, cloned human 5-HT2C receptor (Homo sapiens, UniProt P28335).
T1 sequence (P28335 33-458): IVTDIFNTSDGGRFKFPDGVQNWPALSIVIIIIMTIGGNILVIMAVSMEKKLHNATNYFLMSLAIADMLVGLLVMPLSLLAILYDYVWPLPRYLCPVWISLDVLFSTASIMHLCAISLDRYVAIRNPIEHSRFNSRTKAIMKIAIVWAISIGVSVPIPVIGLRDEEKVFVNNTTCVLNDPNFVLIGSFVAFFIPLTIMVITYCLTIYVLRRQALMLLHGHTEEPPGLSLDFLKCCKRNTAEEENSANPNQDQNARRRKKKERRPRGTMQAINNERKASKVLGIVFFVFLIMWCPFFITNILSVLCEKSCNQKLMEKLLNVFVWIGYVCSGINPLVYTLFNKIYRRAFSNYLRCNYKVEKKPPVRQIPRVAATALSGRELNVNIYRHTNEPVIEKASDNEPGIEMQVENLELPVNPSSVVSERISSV

Sequence of 5-HT2A receptors (P28223 whole entry): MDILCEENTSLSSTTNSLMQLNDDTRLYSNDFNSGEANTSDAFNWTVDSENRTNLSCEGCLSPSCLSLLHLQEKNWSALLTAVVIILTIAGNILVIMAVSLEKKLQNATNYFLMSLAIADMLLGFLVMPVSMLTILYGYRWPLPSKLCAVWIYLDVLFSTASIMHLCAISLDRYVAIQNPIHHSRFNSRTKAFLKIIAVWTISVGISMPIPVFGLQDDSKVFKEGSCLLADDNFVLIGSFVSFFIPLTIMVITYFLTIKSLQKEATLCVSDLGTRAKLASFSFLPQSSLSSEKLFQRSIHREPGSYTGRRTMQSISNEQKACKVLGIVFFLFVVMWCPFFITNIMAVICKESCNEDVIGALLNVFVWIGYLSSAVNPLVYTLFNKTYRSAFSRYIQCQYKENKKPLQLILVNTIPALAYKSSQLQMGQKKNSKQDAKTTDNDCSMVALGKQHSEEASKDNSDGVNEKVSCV
Sequence of 5-HT2B receptors (P41595 whole entry): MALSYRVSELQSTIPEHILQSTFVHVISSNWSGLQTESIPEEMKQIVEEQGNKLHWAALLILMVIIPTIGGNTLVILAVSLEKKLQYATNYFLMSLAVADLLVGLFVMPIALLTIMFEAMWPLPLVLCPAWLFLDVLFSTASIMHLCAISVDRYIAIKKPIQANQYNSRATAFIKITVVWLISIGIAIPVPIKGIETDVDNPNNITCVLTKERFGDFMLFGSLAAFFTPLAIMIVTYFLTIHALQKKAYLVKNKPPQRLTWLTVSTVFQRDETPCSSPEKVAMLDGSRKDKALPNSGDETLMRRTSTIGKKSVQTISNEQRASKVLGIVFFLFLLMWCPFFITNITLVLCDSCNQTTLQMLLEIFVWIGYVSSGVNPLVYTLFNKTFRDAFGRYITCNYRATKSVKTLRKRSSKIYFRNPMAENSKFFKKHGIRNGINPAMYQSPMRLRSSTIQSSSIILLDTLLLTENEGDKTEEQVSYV

With `COc1cc(OC)c(C(=O)CCCCN2CCC3(CC2)NC(=O)NC3=O)cc1NS(=O)(=O)c1ccc(C(F)(F)F)cc1` [RS 102221, 8-[5-(2,4-Dimethoxy-5-(4-trifluoromethylphenylsulphonamido)phenyl-5-oxopentyl]-1,3,8-triazaspiro[4.5]decane-2,4-dione hydrochloride], the “selectivity over 5-HT2A receptors” value on 5-HT2A receptors is given as 100 fold. The “selectivity over 5-HT2B receptors” value on 5-HT2B receptors is recorded as 100 fold.

With `Cl.Cn1ccc2cc(NC(=O)Nc3cccnc3)ccc21` [SB 200646A, N-(1-methyl-5-indolyl)-N′-(3-pyridyl) urea hydrochloride], the pKi in data set [1] is 6.9.

Regarding `Cc1cc2c(cc1Cl)N(C(=O)Nc1ccc(Oc3cccnc3C)nc1)CC2` [SB 242084, 6-chloro-5-methyl-N-{6-[(2-methylpyridin-3-yl)oxy]pyridin-3-yl}indoline-1-carboxamide], the “selectivity over 5-HT2A receptors” value at 5-HT2A receptors is recorded as 158 fold. Also, at 5-HT2B receptors, the “selectivity over 5-HT2B receptors” value is 100 fold.
